Assays:
MST1/STK4 = molecular target: T1, MST1/STK4 (Homo sapiens, UniProt Q13043); settings: 1 μM; Run 1, Run 2
T1 sequence (Q13043 1-487): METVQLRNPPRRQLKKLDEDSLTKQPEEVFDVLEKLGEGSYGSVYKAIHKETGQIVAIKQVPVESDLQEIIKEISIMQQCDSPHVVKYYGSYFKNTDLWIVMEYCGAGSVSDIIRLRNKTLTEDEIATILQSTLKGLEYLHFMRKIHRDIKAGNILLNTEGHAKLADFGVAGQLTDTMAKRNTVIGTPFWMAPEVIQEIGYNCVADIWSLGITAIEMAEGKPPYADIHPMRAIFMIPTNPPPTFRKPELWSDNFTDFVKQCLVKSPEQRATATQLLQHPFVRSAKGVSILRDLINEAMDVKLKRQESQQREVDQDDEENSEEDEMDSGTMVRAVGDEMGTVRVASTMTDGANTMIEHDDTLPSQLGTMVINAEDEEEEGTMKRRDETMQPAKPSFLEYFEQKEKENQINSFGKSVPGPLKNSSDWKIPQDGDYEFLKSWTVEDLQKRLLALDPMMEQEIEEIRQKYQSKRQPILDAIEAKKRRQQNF

ACK1 = ACK1 (Homo sapiens, UniProt Q07912); assay: biochemical; settings: read-out: % enzyme activity, 1 μM; Run 1, Run 2
Sequence of ACK1 (Q07912 whole entry): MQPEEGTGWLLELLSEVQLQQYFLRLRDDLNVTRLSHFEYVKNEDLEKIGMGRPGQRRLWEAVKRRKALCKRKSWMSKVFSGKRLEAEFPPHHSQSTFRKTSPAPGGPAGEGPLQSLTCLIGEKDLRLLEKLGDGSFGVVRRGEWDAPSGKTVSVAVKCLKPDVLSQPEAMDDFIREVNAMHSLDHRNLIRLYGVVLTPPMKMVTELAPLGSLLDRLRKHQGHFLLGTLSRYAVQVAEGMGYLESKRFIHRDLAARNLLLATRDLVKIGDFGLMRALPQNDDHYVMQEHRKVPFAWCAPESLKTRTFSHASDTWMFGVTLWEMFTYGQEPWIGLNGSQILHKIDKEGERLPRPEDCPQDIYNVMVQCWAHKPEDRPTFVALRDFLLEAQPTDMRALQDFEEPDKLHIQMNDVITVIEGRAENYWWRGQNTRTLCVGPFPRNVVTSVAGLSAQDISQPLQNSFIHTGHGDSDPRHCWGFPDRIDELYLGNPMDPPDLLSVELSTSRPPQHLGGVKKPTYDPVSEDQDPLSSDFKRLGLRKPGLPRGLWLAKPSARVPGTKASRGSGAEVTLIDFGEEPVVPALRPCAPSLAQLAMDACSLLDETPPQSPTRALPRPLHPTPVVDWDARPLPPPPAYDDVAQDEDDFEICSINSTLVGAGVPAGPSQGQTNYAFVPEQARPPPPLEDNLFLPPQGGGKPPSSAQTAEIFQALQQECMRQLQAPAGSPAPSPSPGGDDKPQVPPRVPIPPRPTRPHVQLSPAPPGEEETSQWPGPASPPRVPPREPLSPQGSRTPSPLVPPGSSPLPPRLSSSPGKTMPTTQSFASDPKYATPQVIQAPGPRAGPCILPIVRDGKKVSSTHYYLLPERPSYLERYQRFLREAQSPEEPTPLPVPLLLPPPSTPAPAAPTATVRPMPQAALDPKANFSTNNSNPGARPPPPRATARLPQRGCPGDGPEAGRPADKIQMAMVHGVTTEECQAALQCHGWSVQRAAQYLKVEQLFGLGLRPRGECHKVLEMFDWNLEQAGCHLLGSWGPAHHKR

IKKa/CHUK = molecular target: T2, IKKa/CHUK (Homo sapiens, UniProt O15111); settings: 1 μM; Run 1, Run 2
T2 sequence (O15111 1-745): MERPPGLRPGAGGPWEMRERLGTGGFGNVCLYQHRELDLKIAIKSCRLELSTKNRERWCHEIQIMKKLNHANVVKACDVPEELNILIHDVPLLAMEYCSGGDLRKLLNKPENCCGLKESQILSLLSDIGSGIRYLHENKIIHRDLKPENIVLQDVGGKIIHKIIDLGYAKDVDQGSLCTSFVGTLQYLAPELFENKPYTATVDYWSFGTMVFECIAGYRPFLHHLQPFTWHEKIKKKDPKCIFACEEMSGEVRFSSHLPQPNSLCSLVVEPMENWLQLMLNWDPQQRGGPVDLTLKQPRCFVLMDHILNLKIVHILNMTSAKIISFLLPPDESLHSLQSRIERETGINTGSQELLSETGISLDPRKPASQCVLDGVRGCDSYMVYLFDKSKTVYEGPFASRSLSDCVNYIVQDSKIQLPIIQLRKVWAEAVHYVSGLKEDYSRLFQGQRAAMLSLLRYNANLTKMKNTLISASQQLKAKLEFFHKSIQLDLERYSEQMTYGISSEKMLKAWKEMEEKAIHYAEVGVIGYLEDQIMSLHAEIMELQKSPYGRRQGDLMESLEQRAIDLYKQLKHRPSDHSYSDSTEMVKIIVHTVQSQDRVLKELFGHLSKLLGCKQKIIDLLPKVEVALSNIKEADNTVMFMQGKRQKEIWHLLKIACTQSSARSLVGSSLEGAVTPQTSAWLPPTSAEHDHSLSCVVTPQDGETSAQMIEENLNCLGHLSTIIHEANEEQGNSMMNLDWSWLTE

EPHB1 = molecular target: T3, EPHB1 (Homo sapiens, UniProt P54762); settings: 1 μM; Run 1, Run 2
T3 sequence (P54762 18-984): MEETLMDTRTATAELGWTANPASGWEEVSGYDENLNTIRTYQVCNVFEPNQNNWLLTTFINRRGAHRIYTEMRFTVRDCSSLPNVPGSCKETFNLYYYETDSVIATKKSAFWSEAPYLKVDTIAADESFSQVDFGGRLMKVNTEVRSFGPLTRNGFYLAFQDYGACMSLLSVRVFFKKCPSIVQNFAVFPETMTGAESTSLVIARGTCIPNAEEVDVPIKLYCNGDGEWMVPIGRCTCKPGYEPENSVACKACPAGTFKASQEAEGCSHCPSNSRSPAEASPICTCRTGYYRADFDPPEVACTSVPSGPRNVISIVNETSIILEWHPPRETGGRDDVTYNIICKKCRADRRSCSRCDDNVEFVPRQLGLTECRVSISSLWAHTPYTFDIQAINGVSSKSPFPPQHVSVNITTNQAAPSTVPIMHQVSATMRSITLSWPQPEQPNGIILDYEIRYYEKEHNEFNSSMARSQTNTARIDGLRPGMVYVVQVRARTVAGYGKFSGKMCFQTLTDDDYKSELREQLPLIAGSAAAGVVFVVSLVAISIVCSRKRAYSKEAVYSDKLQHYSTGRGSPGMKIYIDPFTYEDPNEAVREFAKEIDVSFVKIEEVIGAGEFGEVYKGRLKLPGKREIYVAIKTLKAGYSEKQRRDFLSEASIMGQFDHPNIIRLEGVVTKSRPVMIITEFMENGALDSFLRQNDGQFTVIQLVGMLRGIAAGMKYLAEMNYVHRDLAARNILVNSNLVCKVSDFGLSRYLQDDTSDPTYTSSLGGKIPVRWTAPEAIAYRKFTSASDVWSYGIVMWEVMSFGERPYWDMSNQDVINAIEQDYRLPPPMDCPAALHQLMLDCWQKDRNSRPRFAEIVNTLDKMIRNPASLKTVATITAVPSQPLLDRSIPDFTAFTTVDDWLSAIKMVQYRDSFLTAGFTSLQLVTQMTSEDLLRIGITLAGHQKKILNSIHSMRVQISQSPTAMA

SMILES	% enzyme activity (MST1/STK4) [%]	remaining activity at 1 µM (ACK1) [%]	% enzyme activity (IKKa/CHUK) [%]	% enzyme activity (EPHB1) [%]
COc1cc(-c2cncc(-c3ccc(N4CCN(C)CC4)cc3)c2C)cc(F)c1C(N)=O [Compound 26a, 2-Fluoro-6-methoxy-4-(4-methyl-5-(4-(4-methylpiperazin-1-yl)phenyl)pyridin-3-yl)benzamide]	100.26	65.5	82.74	91.99
COc1cc(-c2cncc(-c3ccc(N4C[C@@H](C)N(C)[C@@H](C)C4)cc3)c2C)cc(F)c1C(N)=O [Compound 26c, 2-Fluoro-6-methoxy-4-(4-methyl-5-(4-((3R,5S)-3,4,5-trimethylpiperazin-1-yl)phenyl)pyridin-3-yl)benzamide]	101.65	79.5	85.96	89.37
